Test results: EP2276483B1, “SOLID FORMS COMPRISING (+)-2-[1-(3-ETHOXY-4-METHOXYPHENYL)-2-METHYLSULFONYLETHYL]-4-ACETYLAMINOISOINDOLINE-1,3-DIONE, COMPOSITIONS THEREOF, AND USES THEREOF” (CELGENE CORPORATION, priority 2008, dated 2009)

Columns and labels:
serum TNF-α = test: Mouse LPS-induced serum TNF-α inhibition; assay type: in vivo; details: po, read-out: Mouse LPS-induced serum TNF-α inhibition (ED50, mg/kg, p.o.)
Procedure: Compounds were tested in this animal model according to previously described methods (Corral et al., 1996, Mol. Med., 2:506-515). Mouse LPS-induced serum TNF-α inhibition (ED50, mg/kg, p.o.) = 0.05 for Compound A.

human PDE2 = human PDE2 (Homo sapiens, UniProt O00408); test: PDE2 enzyme assay; assay type: biochemical
[1] = target: T1, PDE5 from human platelets (Homo sapiens, UniProt O76074); test: PDE5 enzyme assay; assay type: biochemical
T1 construct: PDE5 from human platelets; from tissue; host or cells: human platelets

[2] = target: PDE7 purified from Hut78 human T cells (Homo sapiens, UniProt Q13946); test: PDE7 enzyme assay; assay type: biochemical
Procedure: PDE7 is a cAMP-selective PDE expressed mainly in T cells and in skeletal muscle. T cell-derived cytokines such as IL-2 and IFN-γ are potentially regulatable via PDE7 inhibition. […] Compounds were tested against the PDE7 preparation in the presence of 10 nM cAMP as described for PDE4 in Table 1.

IL-2 = test: cells; assay type: cell-based; details: Homo sapiens, PBMC, read-out: IL-2 IC50
IL-8 = test: Zymosan-induced IL-8 production in human neutrophils; assay type: cell-based; details: Neutrophil
Procedure: Zymosan A, or the heat-killed yeast Saccharomyces cerevisiae, binds to the adhesion molecule Mac-1 on the neutrophil surface and triggers phagocytosis, cell activation and IL-8 production. Zymosan-induced IL-8 production was measured as previously described (Au et al., 1998, Brit. J. Pharm., 123:1260-1266) with the following modifications. Human neutrophils were purified as described above, plated in 96-well tissue culture plates at 3x10^5 cells/well in complete medium, treated with compounds at 10, 2, 0.4, 0.08, 0.016, 0.0032, 0.00064, and 0 µM in duplicate in a final DMSO concentration of 0.1% for 1 hour at 37°C 5% CO2. Neutrophils were then stimulated with unopsonized, boiled Zymosan A (Sigma) at 2.5 x 10^5 particles/well for 18 hours. Supernatants were harvested and tested for IL-8 by ELISA (R&D Systems).

CD18 = test: fMLF-induced CD18 expression on neutrophils; assay type: cell-based; details: Neutrophil; human neutrophils; 30 nM fMLF
Procedure: CD18/CD11b (Mac-1) expression on neutrophils was measured as previously described (Derian et al., 1995, J. Immunol., 154:308-3 17) with the following modifications. Neutrophils were isolated as described above, then resuspended in complete medium at 1x10^6 cells/ml, pretreated with compounds at 10, 1, 0.1, 0.01, and 0 µM in duplicate at a final DMSO concentration of 0.1% for 10 minutes at 37°C 5%CO2. Cells were then stimulated with 30 nM fMLF for 30 minutes and then chilled to 4°C. Cells were treated with rabbit IgG (Jackson ImmunoResearch Labs, West Grove, PA, USA) (10 µg/1x10^6 cells) to block Fc receptors, stained with CD18-FITC and CD11b-PE (Becton Dickinson), and analyzed by flow cytometry on a FACSCalibur. CD18/CD11b expression (mean fluorescence) in the absence of stimulation was subtracted from all samples to obtain inhibition curves and calculate IC50 values.

[3] = test system: neutrophil adhesion to HUVEC; test: fMLF-induced neutrophil adhesion to HUVEC; assay type: cell-based; details: human neutrophils, 500 nM fMLF
Procedure: Human umbilical vein endothelial cells (HUVEC) were used as a substrate for neutrophil adhesion as previously described (Derian et al., 1995, J. Immunol., 154:308-317) with the following modifications. HUVEC cells were obtained from Anthrogenesis (Cedar Knolls, NJ, USA), and neutrophils were not treated with cytochalasin B. Cells were treated with compounds at 10, 1, 0.1, 0.01, 0.001, and 0 µM in a final DMSO concentration of 0.1% in duplicate for 10 minutes, stimulated with 500 nM fMLF for 30 minutes, and washed twice with PBS before measuring fluorescence on an FLX800 plate reader (Bio-Tek Instruments, Winooski, VT, USA). Table 2. Assay results

[4] = test system: subjects with moderate to severe plaque-type psoriasis; test: Phase 2 randomized double-blind placebo-controlled study in moderate to severe plaque-type psoriasis; assay type: in vivo, human
Procedure: This phase 2, multicenter, randomized, double-blind, placebo-controlled, parallel-group, dose-comparison study evaluated the efficacy and safety of Compound A in subjects with moderate to severe plaque-type psoriasis who were candidates for systemic therapy.
This study included a 12-week treatment phase followed by a 4-week observational follow-up phase. A total of 260 subjects were randomized to receive Compound A 20 mg BID, Compound A 20 mg QD, or placebo for 12 weeks. The primary endpoint for this study was the proportion of subjects treated with Compound A who achieved a 75% reduction in Psoriasis Area and Severity Index score ("PASI-75") at week 12/last treatment in reference to the baseline visit. Last treatment is defined as the last PASI assessment completed during the 12-week treatment phase.

[5] = 20 mg BID, week 12/last treatment

Chain of human PDE2 (O00408 whole entry): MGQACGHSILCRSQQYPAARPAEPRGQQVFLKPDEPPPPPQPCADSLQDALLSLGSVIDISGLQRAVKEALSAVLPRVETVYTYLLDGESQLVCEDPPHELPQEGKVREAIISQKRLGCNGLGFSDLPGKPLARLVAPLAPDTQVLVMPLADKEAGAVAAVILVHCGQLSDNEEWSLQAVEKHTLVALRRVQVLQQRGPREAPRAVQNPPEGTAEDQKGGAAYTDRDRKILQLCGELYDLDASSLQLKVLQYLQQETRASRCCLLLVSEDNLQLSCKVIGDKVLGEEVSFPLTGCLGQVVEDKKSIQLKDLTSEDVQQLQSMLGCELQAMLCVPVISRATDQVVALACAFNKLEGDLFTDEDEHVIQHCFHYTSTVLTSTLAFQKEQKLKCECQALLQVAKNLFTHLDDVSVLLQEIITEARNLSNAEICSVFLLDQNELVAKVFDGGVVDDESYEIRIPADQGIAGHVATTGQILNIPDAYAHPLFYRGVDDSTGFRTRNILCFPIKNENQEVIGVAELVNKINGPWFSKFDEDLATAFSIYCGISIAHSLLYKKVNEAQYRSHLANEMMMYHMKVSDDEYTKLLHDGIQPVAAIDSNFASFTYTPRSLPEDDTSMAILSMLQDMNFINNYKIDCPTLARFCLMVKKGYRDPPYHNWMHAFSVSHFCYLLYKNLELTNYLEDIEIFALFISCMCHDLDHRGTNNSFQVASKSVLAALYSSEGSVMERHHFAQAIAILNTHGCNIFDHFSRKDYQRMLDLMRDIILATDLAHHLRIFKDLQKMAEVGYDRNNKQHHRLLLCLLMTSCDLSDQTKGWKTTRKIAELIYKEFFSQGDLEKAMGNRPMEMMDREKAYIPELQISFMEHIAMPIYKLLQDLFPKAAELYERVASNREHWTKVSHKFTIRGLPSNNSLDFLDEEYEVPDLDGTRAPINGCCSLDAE
Chain of PDE7 purified from Hut78 human T cells (Q13946 whole entry): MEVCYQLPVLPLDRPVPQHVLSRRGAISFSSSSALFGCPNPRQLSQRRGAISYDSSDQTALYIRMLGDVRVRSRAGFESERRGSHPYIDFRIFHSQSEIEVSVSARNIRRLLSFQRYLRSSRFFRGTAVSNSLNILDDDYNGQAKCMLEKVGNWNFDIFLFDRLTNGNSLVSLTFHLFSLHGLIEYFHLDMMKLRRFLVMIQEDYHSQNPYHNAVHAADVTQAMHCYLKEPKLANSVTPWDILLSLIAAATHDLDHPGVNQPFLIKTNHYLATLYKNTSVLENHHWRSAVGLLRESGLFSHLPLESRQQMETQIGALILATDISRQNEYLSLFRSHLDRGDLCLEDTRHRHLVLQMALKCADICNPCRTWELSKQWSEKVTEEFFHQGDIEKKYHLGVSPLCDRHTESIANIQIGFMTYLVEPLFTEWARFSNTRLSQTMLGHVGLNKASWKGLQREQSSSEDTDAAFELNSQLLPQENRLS

## CCOc1cc(C(CS(C)(=O)=O)N2C(=O)c3cccc(NC(C)=O)c3C2=O)ccc1OC (single isomer, unassigned; (+)) [Compound A, (+)-2-[1-(3-ethoxy-4-methoxyphenyl)-2-methylsulfonylethyl]-4-acetylaminoisoindoline-1,3-dione]
Serum TNF-α
  ED50: 0.05 mg/kg
Human PDE2; from above data
  PDE Specificity Ratio PDE4/PDE2: >10000 fold
Human PDE2; read-out: PDE2(% inhib at 10 µM)
  inhibition at 10 µM: 6%
[1]; from above data
  PDE Specificity Ratio PDE4/PDE5: >30000 fold
[1]; read-out: PDE5 (% inhib at 10 µM)
  inhibition at 10 µM: 3%
[2]; 10 nM cAMP
  IC50: 20500 nM
[2]; from above data
  PDE Specificity Ratio PDE7 IC50/PDE4 IC50: 279 fold
IL-2
  IC50: 291 nM
IL-8
  IC50: 94 nM
CD18
  IC50: 390 nM
[3]
  IC50: 150 nM
[4]; 20 mg BID or 20 mg QD for 12 weeks
  study drug-related serious adverse events: No study drug-related serious adverse events
[4]; [5]
  mean decrease in PASI from baseline: 52%
  proportion of subjects who achieved PASI-50: 57%
  proportion of subjects who achieved PASI-90: 14%
[4]; 20 mg BID, week 12/last treatment, P=0.023 vs placebo
  proportion of subjects who achieved a PASI-75: 24%
[4]; 12 weeks of treatment
  tolerability and safety: well tolerated and safe
